Data published in PubChem BioAssay AID2060338 (Molecular Pharmacology Branch, DTP, NCI, 2025).
pIC50: −log10 of the molar value. Several values for one entry are separate records, joined by “and”; a condition that tells them apart may be missing. Equal entries are not always repeated.

Tested on: 556581-035-R-J1-PDC spheroids with HUVEC/MSC, viability
Experiment: Anticancer human tumor 556581-035-R-J1-PDC patient-derived ovarian carcinoma cell line growth inhibition [IpAb]
Settings: for viability, T/C: stronger effect = lower value
Procedure, shortened: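 Combinations with ipatasertib or abemaciclib were tested on tumour spheroids holding HUVEC (25%) and MSC (15%) alongside 60% malignant cells. Top concentration was at or near clinical Cmax (10 microM if undefined), descending in half-log steps.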

[1] = curve of first compound, second compound 0.01 µM
[2] = curve of first compound, second compound 0.0316 µM
[3] = curve of first compound, second compound 0.1 µM
[4] = curve of first compound, second compound 0.316 µM
[5] = curve of first compound, second compound 1 µM
[6] = second compound 0.01 µM, first compound 0.0316 µM
[7] = second compound 0.01 µM, first compound 0.1 µM
[8] = second compound 0.0316 µM, first compound 0.0316 µM
[9] = second compound 0.0316 µM, first compound 0.1 µM
[10] = second compound 0.1 µM, first compound 0.0316 µM
[11] = second compound 0.1 µM, first compound 0.1 µM
[12] = second compound 0.316 µM, first compound 0.0316 µM
[13] = second compound 0.316 µM, first compound 0.1 µM
[14] = second compound 1 µM, first compound 0.0316 µM
[15] = second compound 1 µM, first compound 0.1 µM
[16] = second compound 0.1 µM, first compound 0.316 µM
[17] = second compound 0.1 µM, first compound 1 µM
[18] = second compound 0.1 µM, first compound 3.16 µM
[19] = second compound 0.1 µM, first compound 10 µM
[20] = second compound 0.316 µM, first compound 0.316 µM
[21] = second compound 0.316 µM, first compound 1 µM
[22] = second compound 0.316 µM, first compound 3.16 µM
[23] = second compound 0.316 µM, first compound 10 µM
[24] = second compound 1 µM, first compound 0.316 µM
[25] = second compound 1 µM, first compound 1 µM
[26] = second compound 1 µM, first compound 3.16 µM
[27] = second compound 1 µM, first compound 10 µM
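Note: spheroids exposed to compounds for 7 days before readout.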

Compound CC(C)n1nc(-c2ccc3oc(N)nc3c2)c2c(N)ncnc21 + CCN1CCN(Cc2ccc(Nc3ncc(F)c(-c4cc(F)c5nc(C)n(C(C)C)c5c4)n3)nc2)CC1 has a pIC50 [1] of 8.36, a pIC50 [2] of 8.15 and a pIC50 [3] of 8.30. For the same compound, the pIC50 [4] was 8.19, the pIC50 [5] was > 9.50 and the viability, T/C (second compound 0.01 µM, first compound 0.000316 µM) was 108%. For the same compound, the viability, T/C (second compound 0.01 µM, first compound 0.001 µM) was 72.6%, the viability, T/C (second compound 0.01 µM, first compound 0.00316 µM) was 54.4% and the viability, T/C (second compound 0.01 µM, first compound 0.01 µM) was 44.2%. For the same compound, the viability, T/C [6] was 26.4%, the viability, T/C [7] was 22.2% and the viability, T/C (second compound 0.0316 µM, first compound 0.000316 µM) was 86.4%. It also gave a viability, T/C (second compound 0.0316 µM, first compound 0.001 µM) of 78.7%, a viability, T/C (second compound 0.0316 µM, first compound 0.00316 µM) of 60.7% and a viability, T/C (second compound 0.0316 µM, first compound 0.01 µM) of 46.8%. For the same compound, the viability, T/C [8] was 27.5%, the viability, T/C [9] was 19.7% and the viability, T/C (second compound 0.1 µM, first compound 0.000316 µM) was 89.6%. For the same compound, the viability, T/C (second compound 0.1 µM, first compound 0.001 µM) was 76.1%, the viability, T/C (second compound 0.1 µM, first compound 0.00316 µM) was 51.7% and the viability, T/C (second compound 0.1 µM, first compound 0.01 µM) was 45%. It also gave a viability, T/C [10] of 26.4%, a viability, T/C [11] of 20.2% and a viability, T/C (second compound 0.316 µM, first compound 0.000316 µM) of 80.1%. The viability, T/C (second compound 0.316 µM, first compound 0.001 µM) was 69.8%, the viability, T/C (second compound 0.316 µM, first compound 0.00316 µM) was 61.5% and the viability, T/C (second compound 0.316 µM, first compound 0.01 µM) was 44.2%. It also gave a viability, T/C [12] of 28.7%, a viability, T/C [13] of 21.6% and a viability, T/C (second compound 1 µM, first compound 0.000316 µM) of 41.9%. It also gave a viability, T/C (second compound 1 µM, first compound 0.001 µM) of 52.7%, a viability, T/C (second compound 1 µM, first compound 0.00316 µM) of 38.4% and a viability, T/C (second compound 1 µM, first compound 0.01 µM) of 31.9%. It also gave a viability, T/C [14] of 28.4% and a viability, T/C [15] of 23.1%.

In the case of CC1(C)CCC(CN2CCN(c3ccc(C(=O)NS(=O)(=O)c4ccc(NCC5CCOCC5)c([N+](=O)[O-])c4)c(Oc4cnc5[nH]ccc5c4)c3)CC2)=C(c2ccc(Cl)cc2)C1 + CCN1CCN(Cc2ccc(Nc3ncc(F)c(-c4cc(F)c5nc(C)n(C(C)C)c5c4)n3)nc2)CC1, the pIC50 [1] was 5.08, the pIC50 [2] was 5.19 and the pIC50 [3] was 5.17. The pIC50 [4] was 5.25, the pIC50 [5] was 5.69 and the viability, T/C [6] was 92.6%. For the same compound, the viability, T/C [7] was 118%, the viability, T/C (second compound 0.01 µM, first compound 0.316 µM) was 112% and the viability, T/C (second compound 0.01 µM, first compound 1 µM) was 108%. For the same compound, the viability, T/C (second compound 0.01 µM, first compound 3.16 µM) was 102%, the viability, T/C (second compound 0.01 µM, first compound 10 µM) was 40.2% and the viability, T/C [8] was 106%. For the same compound, the viability, T/C [9] was 111%, the viability, T/C (second compound 0.0316 µM, first compound 0.316 µM) was 108% and the viability, T/C (second compound 0.0316 µM, first compound 1 µM) was 98%. It also gave a viability, T/C (second compound 0.0316 µM, first compound 3.16 µM) of 95.5%, a viability, T/C (second compound 0.0316 µM, first compound 10 µM) of 23.7% and a viability, T/C [10] of 122%. The viability, T/C [11] was 104%, the viability, T/C [16] was 107% and the viability, T/C [17] was 94.4%. It also gave a viability, T/C [18] of 91.6%, a viability, T/C [19] of 29.9% and a viability, T/C [12] of 94%. It also gave a viability, T/C [13] of 95.6%, a viability, T/C [20] of 92.2% and a viability, T/C [21] of 94.4%. For the same compound, the viability, T/C [22] was 87.6%, the viability, T/C [23] was 11.8% and the viability, T/C [14] was 67%. It also gave a viability, T/C [15] of 58.1%, a viability, T/C [24] of 68.6% and a viability, T/C [25] of 56.8%. For the same compound, the viability, T/C [26] was 45.1% and the viability, T/C [27] was 6.15%.

In the case of CC1(C)CCC(CN2CCN(c3ccc(C(=O)NS(=O)(=O)c4ccc(NCC5CCOCC5)c([N+](=O)[O-])c4)c(Oc4cnc5[nH]ccc5c4)c3)CC2)=C(c2ccc(Cl)cc2)C1, the viability, T/C (compound 0.0316 µM) was 105% and 99.1%, the viability, T/C (compound 0.1 µM) was 103% and 102% and the viability, T/C (compound 0.316 µM) was 95.2% and 99%. The viability, T/C (compound 1 µM) was 94% and 108%, the viability, T/C (compound 3.16 µM) was 105% and 97.4% and the viability, T/C (compound 10 µM) was 27.4% and 15.8%. For the same compound, the pIC50 (curve of compound) was 5.16 and 5.21.

For Cn1cnc2c(F)c(Nc3ccc(Br)cc3Cl)c(C(=O)NOCCO)cc21, the viability, T/C (compound 0.00949 µM) was 94.9% and 121%, the viability, T/C (compound 0.03 µM) was 95% and 99.7% and the viability, T/C (compound 0.0949 µM) was 92.9% and 109%. The viability, T/C (compound 0.3 µM) was 74.6% and 91.1%, the viability, T/C (compound 0.949 µM) was 45.2% and 43% and the viability, T/C (compound 3 µM) was 14.4% and 14%. The pIC50 (curve of compound) was 6.11 and 6.09.

Cc1nc(NC(=O)N2CCCC2C(N)=O)sc1-c1ccnc(C(C)(C)C(F)(F)F)c1 (centres undefined) + CC(C)NCC(C(=O)N1CCN(c2ncnc3c2C(C)CC3O)CC1)c1ccc(Cl)cc1 was tested, and the pIC50 [3] was 6.30, the pIC50 [4] was 6.69 and the pIC50 [5] was 7.32. For the same compound, the pIC50 (curve of first compound, second compound 3.16 µM) was > 7.50, the pIC50 (curve of first compound, second compound 10 µM) was > 7.50 and the viability, T/C [10] was 81.8%. For the same compound, the viability, T/C [11] was 68.6%, the viability, T/C [16] was 56.8% and the viability, T/C [17] was 38.8%. It also gave a viability, T/C [18] of 31%, a viability, T/C [19] of 11.3% and a viability, T/C [12] of 62%. The viability, T/C [13] was 57.6%, the viability, T/C [20] was 40.3% and the viability, T/C [21] was 39.2%. The viability, T/C [22] was 33%, the viability, T/C [23] was 11.3% and the viability, T/C [14] was 48.5%. It also gave a viability, T/C [15] of 53.8%, a viability, T/C [24] of 39.8% and a viability, T/C [25] of 36.2%. For the same compound, the viability, T/C [26] was 27.4%, the viability, T/C [27] was 16.2% and the viability, T/C (second compound 3.16 µM, first compound 0.0316 µM) was 41.8%. For the same compound, the viability, T/C (second compound 3.16 µM, first compound 0.1 µM) was 43.2%, the viability, T/C (second compound 3.16 µM, first compound 0.316 µM) was 43.5% and the viability, T/C (second compound 3.16 µM, first compound 1 µM) was 35.6%. The viability, T/C (second compound 3.16 µM, first compound 3.16 µM) was 24.6%, the viability, T/C (second compound 3.16 µM, first compound 10 µM) was 10.7% and the viability, T/C (second compound 10 µM, first compound 0.0316 µM) was 38.6%. For the same compound, the viability, T/C (second compound 10 µM, first compound 0.1 µM) was 42.4%, the viability, T/C (second compound 10 µM, first compound 0.316 µM) was 35.7% and the viability, T/C (second compound 10 µM, first compound 1 µM) was 27.2%. It also gave a viability, T/C (second compound 10 µM, first compound 3.16 µM) of 22.9% and a viability, T/C (second compound 10 µM, first compound 10 µM) of 4.11%.
